Data taken from the NIST ThermoML archive (doi:10.1016/j.fluid.2011.12.007).

Key:
[1] = refractive index (Na D-line) (dimensionless); details: 298.15 K; 101.33 kPa; Liquid; Standard Abbe refractometry
[2] = for mass density: 101.33 kPa, Liquid, Vibrating tube method; for surface tension liquid-gas: Maximal bubble pressure
[3] = xn = mol fraction of the nth substance listed; details: 303.15 K, Maximal bubble pressure
[4] = Boiling temperature at pressure P; details: 101.33 kPa; Liquid; Ebulliometric method (Recirculating still)

CCCCCC [hexane]
Details	refractive index
[1]	1.37374

Details	mass density [kg/m3]
[2], 298.15 K	655.19

CCCCCC [hexane] + C1CCOCC1
Details	surface tension liquid-gas [mN/m]
[3], x1 = 1	17.4

C1CCOCC1 [tetrahydropyran]
Details	Boiling temperature at pressure P [°C]	refractive index
[1]	–	1.42
[4]	88.21	–

[2]
Details	mass density [kg/m3]	surface tension liquid-gas [mN/m]
283.15 K	–	29.61
288.15 K	–	29.15
293.15 K	–	28.56
298.15 K	879.03	28
303.15 K	–	27.14
308.15 K	–	26.5
313.15 K	–	25.55
318.15 K	–	25.25
323.15 K	–	24.23
328.15 K	–	23.6
333.15 K	–	22.75

C1CCOCC1 [tetrahydropyran] + CCCCCC
[3]
Details	surface tension liquid-gas [mN/m]
x2 = 0	27.1
x2 = 0.045	26.47
x2 = 0.09	25.64
x2 = 0.181	24.39
x2 = 0.282	23.17
x2 = 0.383	22.03
x2 = 0.487	21.13
x2 = 0.589	20.39
x2 = 0.674	19.47
x2 = 0.786	18.77
x2 = 0.899	18.12
x2 = 0.964	17.46
